pIC50: −log10 of the molar value. In brackets after ≈: the same amount, converted by molar mass.
Columns and labels:
[1] = Lipophilicity determination by RP-HPLC; type: physicochemical; conditions: for log k: RP-HPLC, logarithm of capacity factor k
Protocol: It is evident from the graphs in Figure 1 that the correlation coefficients of the dependences of log k/log D6.5/log D7.4 have a value of r = 0.999 (n = 32), which means that the investigated compounds behave insignificantly differently in aqueous media with different pH. Moreover, lipophilicity was calculated as log P and Clog P using two prediction programs. […] Therefore, only log P values predicted by ACD/Percepta can be used for correlations with experimental values. These matches are shown in the graphs in Figure 2, and according to the correlation coefficient r~0.940 (n = 32), it can be argued that even the predicted lipophilicity values correlate with the experimentally measured ones. However, the largest variations were observed (no difference for series 1, 2) for compounds substituted with 2-Cl, 2-CF3, 2,5-Cl, 4-F, 4-CF3, and 3,5-F, 3,5-Cl. These are mainly substituents capable of forming hydrogen and other types of non-bonding interactions both with the surrounding environment and within the molecule. Overall, series 1 (3-CF3) is less lipophilic than series 2 (4-CF3), but the differences in the experimental data are insignificant. Unsubstituted derivatives 1a/2a are the least lipophilic compounds, while derivatives 1o/2o (3,5-Cl) and 1p/2p (3,5-CF3) are the most lipophilic compounds.
Experimental determination of lipophilicity values (log k, log D6.5, and log D7.4) was performed under the same conditions and on the same device as described by Strharsky et al..

[2] = tested on: methicillin-resistant S. aureus SA 3202 (MRSA1); experiment: MBC, agar aliquot subculture method; type: cell-based; conditions: Staphylococcus aureus; MRSA SA 3202
[3] = tested on: methicillin-resistant S. aureus 63718 (MRSA3); experiment: MBC, agar aliquot subculture method; type: cell-based; conditions: Staphylococcus aureus; MRSA 63718
[4] = tested on: methicillin-resistant S. aureus 63718 (MRSA3); experiment: MIC, microtitration broth method; type: cell-based; conditions: Staphylococcus aureus; MRSA 63718
[5] = tested on: Staphylococcus aureus ATCC 29213; experiment: MIC, microtitration broth method; type: cell-based; conditions: ATCC29213, S. aureus ATCC 29213
M. smegmatis ATCC 700084 = experiment: In vitro antimycobacterial evaluation (MIC); type: cell-based, Mycobacterium smegmatis; conditions: Mycolicibacterium smegmatis, ATCC700084
[6] = tested on: methicillin-resistant S. aureus SA 3202 (MRSA1); experiment: MIC, microtitration broth method; type: cell-based; conditions: Staphylococcus aureus; MRSA SA 3202
[7] = tested on: human monocytic leukemia cell line THP-1; experiment: In vitro cell viability (cytotoxicity screening); type: cell-based; conditions: 24 h, medium with 10% FBS, ± SD, n = 6
Protocol: The investigated anilides can be divided into three groups. […] Higher concentrations (than 10 or 30 µM) were not possible to evaluate due to precipitation of the tested compounds in water medium. Based on all these observations, it can be concluded that the high antimicrobial activity of 3,5-CF3-substituted compounds is associated with significant cytotoxic effect against eukaryotic cells. On the other hand, the other still effective compounds, especially agents 1j and 1o, have an insignificant toxic effect, which makes them interesting for further study.
Human monocytic leukemia THP-1 cells obtained from the European Collection of Cell Cultures (ECACC, Salisbury, UK) were used for in vitro antiproliferative assays. A recently described procedure was used.

S. aureus ATCC 29213 = experiment: MTT assay, inhibition of bacterial respiration; type: cell-based, Staphylococcus aureus
Text: The MTT assay can be used to assess cell growth by measuring respiration. Respiratory activity of bacterial cells (which is finally reflected in their viability) less than 70% after exposure to the MIC values for each tested compound is considered as a positive result of this assay. This low level of cell oxidative metabolism indicates inhibition of cell growth by inhibition of respiration. The lowest multiples of MIC values that achieved more than 70% inhibition of S. aureus ATCC 29213 viability (%) are shown in Table 3.
The percent inhibition of respiration of S. aureus ATCC 29213 was determined through the MTT assay. The assay was performed as described recently. The percent viability is calculated through the comparison of a measured value and that of the uninhibited control: % viability = OD570E/OD570P × 100, where OD570E is the reading from the compound-exposed cells, while OD570P is the reading from the uninhibited cells (positive control). Cytotoxic potential is determined by a percent viability of <70% [46, 47].

[8] = tested on: methicillin-resistant S. aureus SA 630 (MRSA2); experiment: MBC, agar aliquot subculture method; type: cell-based; conditions: Staphylococcus aureus; MRSA SA 630
[9] = tested on: methicillin-resistant S. aureus SA 630 (MRSA2); experiment: MIC, microtitration broth method; type: cell-based; conditions: Staphylococcus aureus; MRSA SA 630
[10] = tested on: Staphylococcus aureus ATCC 29213; experiment: MBC, agar aliquot subculture method; type: cell-based; conditions: ATCC29213, S. aureus ATCC 29213

| Molecule | log k [1] | melting point [°C] | further results |
| --- | --- | --- | --- |
| O=C(/C=C/c1ccc(C(F)(F)F)cc1)Nc1ccc(F)cc1F [2k, (2E)-N-(2,4-Difluorophenyl)-3-[4-(trifluoromethyl)phenyl]prop-2-enamide] | 0.6011 | 141 to 143 | – |
| O=C(/C=C/c1cccc(C(F)(F)F)c1)Nc1ccc(Cl)cc1 [1g, (2E)-N-(4-Chlorophenyl)-3-[3-(trifluoromethyl)phenyl]prop-2-enamide] | 0.7982 | 162 to 164 | MBC [2]: 24.6 µM (≈ 8.01 µg/mL); MBC [3]: 24.6 µM (≈ 8.01 µg/mL); MIC [4]: 12.3 µM (≈ 4.01 µg/mL); MIC [5]: 24.6 µM (≈ 8.01 µg/mL); MIC (M. smegmatis ATCC 700084): 24.6 µM (≈ 8.01 µg/mL); MIC [6]: 12.3 µM (≈ 4.01 µg/mL); pIC50 [7]: < 5.00; Conc.: lowest multiple of MIC with at least 70% inhibition of respiratory activity (S. aureus ATCC 29213): 4 × MIC; Conc.: the same concentration as multiple of MBC (S. aureus ATCC 29213): 2 × MBC; MBC [8]: 6.14 µM (≈ 2 µg/mL); MIC [9]: 6.14 µM (≈ 2 µg/mL); MBC [10]: 49.1 µM (≈ 16 µg/mL) |
| O=C(/C=C/c1ccc(C(F)(F)F)cc1)Nc1ccc(F)cc1 [2d, (2E)-N-(4-Fluorophenyl)-3-[4-(trifluoromethyl)phenyl]prop-2-enamide] | 0.5887 | 149 to 151 | – |
| O=C(/C=C/c1cccc(C(F)(F)F)c1)Nc1ccc(F)cc1 [1d, (2E)-N-(4-Fluorophenyl)-3-[3-(trifluoromethyl)phenyl]prop-2-enamide] | 0.5760 | – | – |
| O=C(/C=C/c1ccc(C(F)(F)F)cc1)Nc1cc(F)cc(F)c1 [2l, (2E)-N-(3,5-Difluorophenyl)-3-[4-(trifluoromethyl)phenyl]prop-2-enamide] | 0.8253 | 188 to 190 | – |
| O=C(/C=C/c1cccc(C(F)(F)F)c1)Nc1ccc(F)cc1F [1k, (2E)-N-(2,4-Difluorophenyl)-3-[3-(trifluoromethyl)phenyl]prop-2-enamide] | 0.5906 | 143 to 145 | – |
| O=C(/C=C/c1ccc(C(F)(F)F)cc1)Nc1ccc(Cl)cc1 [2g, (2E)-N-(4-Chlorophenyl)-3-[4-(trifluoromethyl)phenyl]prop-2-enamide] | 0.8054 | 185 to 187 | – |
| O=C(/C=C/c1ccc(C(F)(F)F)cc1)Nc1ccccc1F [2b, (2E)-N-(2-Fluorophenyl)-3-[4-(trifluoromethyl)phenyl]prop-2-enamide] | 0.5515 | 164 to 166 | – |
| O=C(/C=C/c1cccc(C(F)(F)F)c1)Nc1cc(F)cc(F)c1 [1l, (2E)-N-(3,5-Difluorophenyl)-3-[3-(trifluoromethyl)phenyl]prop-2-enamide] | 0.8186 | 131 to 133 | – |
| O=C(/C=C/c1ccc(C(F)(F)F)cc1)Nc1cc(Cl)ccc1Cl [2n, (2E)-N-(2,5-Dichlorophenyl)-3-[4-(trifluoromethyl)phenyl]prop-2-enamide] | 0.9583 | 180 to 182 | – |
| (2E)-N-Phenyl-3-[3-(trifluoromethyl)phenyl]prop-2-enamide [2a] | 0.5351 | – | log D6.5 ([1]; pH 6.5): 0.4751; log D7.4 ([1]; pH 7.4): 0.4684 |
| O=C(/C=C/c1cccc(C(F)(F)F)c1)Nc1cccc(C(F)(F)F)c1 [1i, (2E)-N,3-bis[3-(Trifluoromethyl)phenyl]prop-2-enamide] | 0.8807 | – | MBC [2]: 11.1 µM (≈ 3.99 µg/mL); MBC [3]: 22.3 µM (≈ 8.01 µg/mL); MIC [4]: 2.78 µM (≈ 0.999 µg/mL); MIC [5]: 11.1 µM (≈ 3.99 µg/mL); MIC (M. smegmatis ATCC 700084): 11.1 µM (≈ 3.99 µg/mL); MIC [6]: 11.1 µM (≈ 3.99 µg/mL); pIC50 [7]: < 5.00; Conc.: lowest multiple of MIC with at least 70% inhibition of respiratory activity (S. aureus ATCC 29213): 1 × MIC; Conc.: the same concentration as multiple of MBC (S. aureus ATCC 29213): 0.5 × MBC; MBC [8]: 2.78 µM (≈ 0.999 µg/mL); MIC [9]: 2.78 µM (≈ 0.999 µg/mL); MBC [10]: 22.3 µM (≈ 8.01 µg/mL) |
| O=C(/C=C/c1cccc(C(F)(F)F)c1)Nc1ccc(Cl)cc1Cl [1m, (2E)-N-(2,4-Dichlorophenyl)-3-[3-(trifluoromethyl)phenyl]prop-2-enamide] | 0.9782 | 134 to 136 | – |
| O=C(/C=C/c1cccc(C(F)(F)F)c1)Nc1ccccc1C(F)(F)F [1h, (2E)-N-[2-(Trifluoromethyl)phenyl]-3-[3-(trifluoromethyl)phenyl]prop-2-enamide] | 0.5710 | 111 to 113 | – |
| O=C(/C=C/c1ccc(C(F)(F)F)cc1)Nc1cc(Cl)cc(Cl)c1 [2o, (2E)-N-(3,5-Dichlorophenyl)-3-[4-(trifluoromethyl)phenyl]prop-2-enamide] | 1.2024 | 177 to 179 | – |
| O=C(/C=C/c1cccc(C(F)(F)F)c1)Nc1ccccc1F [1b, (2E)-N-(2-Fluorophenyl)-3-[3-(trifluoromethyl)phenyl]prop-2-enamide] | 0.5375 | 115 to 117 | – |
| O=C(/C=C/c1cccc(C(F)(F)F)c1)Nc1ccccc1 [1a, (2E)-N-Phenyl-3-[3-(trifluoromethyl)phenyl]prop-2-enamide] | 0.5234 | – | – |
| O=C(/C=C/c1cccc(C(F)(F)F)c1)Nc1cc(Cl)ccc1Cl [1n, (2E)-N-(2,5-Dichlorophenyl)-3-[3-(trifluoromethyl)phenyl]prop-2-enamide] | 0.9612 | 145 to 147 | – |
| O=C(/C=C/c1ccc(C(F)(F)F)cc1)Nc1ccccc1Cl [2e, (2E)-N-(2-Chlorophenyl)-3-[4-(trifluoromethyl)phenyl]prop-2-enamide] | 0.6614 | 171 to 173 | – |
| O=C(/C=C/c1ccc(C(F)(F)F)cc1)Nc1ccc(Cl)cc1Cl [2m, (2E)-N-(2,4-Dichlorophenyl)-3-[4-(trifluoromethyl)phenyl]prop-2-enamide] | 0.9735 | 188 to 190 | – |
| O=C(/C=C/c1ccc(C(F)(F)F)cc1)Nc1cccc(Cl)c1 [2f, (2E)-N-(3-Chlorophenyl)-3-[4-(trifluoromethyl)phenyl]prop-2-enamide] | 0.8095 | 150 to 152 | – |
| O=C(/C=C/c1ccc(C(F)(F)F)cc1)Nc1ccccc1C(F)(F)F [2h, (2E)-N-[2-(Trifluoromethyl)phenyl]-3-[4-(trifluoromethyl)phenyl]prop-2-enamide] | 0.5798 | 189 to 191 | – |
| O=C(/C=C/c1ccc(C(F)(F)F)cc1)Nc1ccc(C(F)(F)F)cc1 [2j, (2E)-N,3-bis[4-(Trifluoromethyl)phenyl]prop-2-enamide] | 0.9319 | 192 to 194 | – |
| O=C(/C=C/c1ccc(C(F)(F)F)cc1)Nc1cccc(F)c1 [2c, (2E)-N-(3-Fluorophenyl)-3-[4-(trifluoromethyl)phenyl]prop-2-enamide] | 0.6462 | 146 to 148 | – |
| O=C(/C=C/c1cccc(C(F)(F)F)c1)Nc1ccccc1Cl [1e, (2E)-N-(2-Chlorophenyl)-3-[3-(trifluoromethyl)phenyl]prop-2-enamide] | 0.6568 | 118 to 120 | – |

Source: PMC9737391, “Trifluoromethylcinnamanilide Michael Acceptors for Treatment of Resistant Bacterial Infections” (International Journal of Molecular Sciences, 2022)
